Data reported in patent EP4775586A1, “DEUTERATED TETRACYCLIC DERIVATIVE AND USE THEREOF” (priority 2023, dated 2025).

Legend:
CYP2E1 = biological target: T1, CYP2E1 (Mus musculus, UniProt Q05421); type: in vitro ADME
T1 construct: from tissue; host or cells: mouse liver microsomes (component of a kit)
Experimental: This example was to detect the CYP450 metabolic enzyme phenotype of the deuterated compound YF027 and its non-deuterated control compound A (using a CYP450 enzyme metabolic phenotype research kit (recombinant enzymatic method/7 enzymes)-mouse liver microsome test).
• a. The test compound was prepared into a 40 mM stock solution for later use. 2.5 µL of the stock solution was taken and diluted with DMSO to a test compound concentration of 200 µM, and the compound at this concentration was used in subsequent tests. • b. The working solution concentration of the mixed positive substrates, phenacetin and testosterone, was 200 µM.
1) The components of the kit were thawed in an ice bath. The mixture was well mixed by vortexing and then placed on ice for later use. 2) In addition to the microsomes, the other components of the incubation systems were mixed according to the ratios and well mixed by pipetting, and the ratios of the incubation systems are shown below; Table 6. Incubation system of positive control group
The inhibitors were quinidine, naphthoflavone, pilocarpine, sodium diethyldithiocarbamate, ticlopidine, ketoconazole, and sulfaphenazole, which corresponded to the inhibition of CYP450 enzymes CYP2D6, CYP1A2, CYP2A6, CYP2E1, CYP2C19, CYP3A4, and CYP2C9, respectively. Table 9. Incubation system of negative control group
3) Except for the negative control group (Table 9), 3.125 µL of liver microsomes was added to each of the above incubation systems to prepare 125 µL of reaction solution. The reaction solutions were well mixed by vortexing, and then placed in a water bath at 37 °C to initiate the reaction. A timer was set. 4) At time points of 0 min and 90 min, 50 µL of reaction solution was taken, and a pre-cooled acetonitrile solution was added to the reaction solution. The mixture was quickly well mixed by vortexing to stop the reaction. 5) Mass spectrometry detection pretreatment of reaction solution
The reaction solution was cryopreserved in a refrigerator at -80 °C overnight and then centrifuged for mass spectrometry detection.
The detection values after 90 min of incubation were processed as ratios relative to the 0-min detection values to determine the metabolic rate of the compounds in different experimental groups after 90 min. The metabolic inhibition rate was then calculated using the formula: Inhibition rate (%) = (1 - metabolic rate of sample with inhibitor/metabolic rate of sample without inhibitor) × 100%, as shown in Table 10 below. […] The metabolic inhibition rate reflects the effect on the metabolic elimination of the drug after adding different selective inhibitors. […]

[1] = 28-day repeat-dose toxicity study in mice; type: in vivo, Balb/c mice
Experimental: Administration groups of the compound YF027 of the present disclosure and its non-deuterated control compound A were set for a 28-day repeat-dose toxicity study in mice. Each compound was administered to 10 Balb/c mice (5 females and 5 males, purchased from Beijing Vital River Laboratory Animal Technology Co., Ltd.) by intragastric administration. The administration was performed once daily for 6 consecutive days a week for 4 consecutive weeks, and an 8% Tween 80 vehicle control group (10 Balb/c mice, 5 females and 5 males) was set for administration at the same volume using the same method. Table 12. Administration information of repeat-dose toxicity assay
During the administration period, the mice were observed every day. The body weight, appearance signs, behavior and activity, fecal traits, and local reactions at the site of administration were recorded. After the end of the administration, the gross anatomy was performed on the mice in the administration group and the control group. The serum of the mice was collected, and the heart, liver, spleen, kidney, lung, and brain tissues and organs were weighed to calculate organ coefficients. The tissue samples of all groups were subjected to histopathological detection, and the serum samples were analyzed for biochemical parameters of liver and kidney functions. The serum biochemical parameters included: alanine aminotransferase (ALT), aspartate aminotransferase (AST), alkaline phosphatase (ALP), urea (UREA), creatinine (CREA), total protein (TP), and albumin (ALB). Statistical analysis was performed to evaluate potential toxic effects of the compounds.

T1 sequence (Q05421 whole entry): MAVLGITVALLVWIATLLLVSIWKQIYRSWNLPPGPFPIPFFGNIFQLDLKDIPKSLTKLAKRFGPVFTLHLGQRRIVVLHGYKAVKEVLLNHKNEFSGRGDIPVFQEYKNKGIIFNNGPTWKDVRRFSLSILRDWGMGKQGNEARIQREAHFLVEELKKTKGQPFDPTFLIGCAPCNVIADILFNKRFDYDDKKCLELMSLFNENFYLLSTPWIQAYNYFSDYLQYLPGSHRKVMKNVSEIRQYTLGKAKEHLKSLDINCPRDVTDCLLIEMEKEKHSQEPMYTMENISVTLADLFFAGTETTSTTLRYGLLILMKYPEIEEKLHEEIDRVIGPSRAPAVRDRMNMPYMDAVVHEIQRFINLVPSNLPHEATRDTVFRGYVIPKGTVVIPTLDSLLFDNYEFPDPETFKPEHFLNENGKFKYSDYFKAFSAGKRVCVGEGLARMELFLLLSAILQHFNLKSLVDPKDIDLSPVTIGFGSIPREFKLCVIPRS

With `Cl.[2H]C1([2H])CCCC([2H])([2H])N1C([2H])([2H])c1c(O)cc(C(C)(C)C)c2oc3c4ccc(O)cc4oc(=O)c3c12` [YF027, 10-(tert-Butyl)-3,8-dihydroxy-7-((piperidin-1-yl-2,2,6,6-d4)methyl-d2)-6H-benzofuran[3,2-c]chromen-6-one hydrochloride] as the compound, how does the Inhibition rate (CYP2E1) read?
Its Inhibition rate is -15.1%.

What about the “toxic response after repeated administration” value ([1]; 100 mg/kg for 28 consecutive days, mice) of the same compound?
The value was “did not produce a significant toxic response”.

And the “mortality during the administration period” value ([1]; 100 mg/kg intragastric, once daily, 6 days a week, 4 weeks, Balb/c mice)?
Its value is “no mice died”.

And the “toxicity compared with the non-deuterated compound A” value ([1]; same dosing conditions, 100 mg/kg, 28 days, mice)?
The value was “no increased toxicity was observed”.
